Assay results reported in patent US12492200B2, “NLRP3 modulators” (INNATE TUMOR IMMUNITY, INC., priority 2020, dated 2025).

Target: T1, NLRP3 (Homo sapiens, UniProt Q96P20)
T1 construct: host or cells: PMA-differentiated THP-1 cells
Test: Measurement of IL-1β production (NLRP3 hIL1β EC50), PMA-differentiated THP-1 cells
Assay type: cell-based
Conditions: human IL-1β production; assayed using one or more of the described procedures
Protocol: THP-1 cells were purchased from the American Type Culture Collection and sub-cultured according to instructions from the supplier. Prior to experiments, cells were cultured in RPMI 1640 containing 10% heat inactivated FBS, penicillin (100 units/ml) and streptomycin (100 μg/ml), and maintained in log phase prior to experimental setup. Prior to the experiment THIP-1 were treated with PMA (Phorbol 12-myristate 13-acetate) (10 μg/ml) for 24 hours. The day of the experiment the media was removed and attaching cells were treated with trypsin for 2 minutes, cells were then collected, washed with PBS (phosphate buffer saline), spin down, resuspended in 2% heat inactivated FBS with RPMI at a concentration of 1×10^6 cells/ml, and 100 μl was plated in a 96 well plate. Compounds were dissolved in dimethyl sulfoxide (DMSO) and added to the culture medium to achieve desired concentration (e.g. 100, 30, 10, 3, 1, 0.3 or 0.1 μM). Cells were incubated with compounds for 4 hours. Cell free supernatant was collected and the production of IL-1β was evaluated by ELISA. A vehicle only control was run concurrently with each experiment. Final DMSO concentration was 1%.
THP-1 cells were purchased from the American Type Culture Collection and sub-cultured according to instructions from the supplier. Prior to experiments, cells were cultured in RPMI 1640 containing 10% heat inactivated FBS, penicillin (100 units/ml), streptomycin (100 μg/ml), HEPES (10 mM) and sodium pyruvate (1 mM) and maintained in log phase prior to experimental setup. Prior to the experiment, THP-1 cells were treated with PMA (Phorbol 12-myristate 13-acetate) (20 μg/ml) overnight. The day of the experiment, the media was removed and attached cells were treated with trypsin for 2 minutes, cells were then collected, washed with PBS (phosphate buffer saline), pelleted by centrifugation and resuspended in 2% heat inactivated FBS with RPMI at a concentration of 50,000 cells/well in a 384 well plate. Cell free supernatant was collected and the production of IL-1β was evaluated by ELISA. Compounds were dissolved in dimethyl sulfoxide (DMSO) and added to the culture medium to achieve desired concentration (e.g. 100, 30, 10, 3, 1, 0.3 or 0.1 μM). Cells were incubated with compounds for 2 hours. A vehicle only control was run concurrently with each experiment. Final DMSO concentration was 1%.
Serial dilutions of compounds in DMSO were added to low volume 384 well plates at 100 nl/well using an ECHO 550 acoustic dispenser (Labcyte) to achieve final starting concentration of 10 μM in assay.
THP-1 cells in RPMI (Gibco, 11875) media with 10% FBS at a density of 1×10^6 cell/ml in a T175 flask were treated with a final concentration of phorbol 12-myristate 13-acetate (PMA) (Sigma,P1585) of 50 ng/ml overnight at 37° C. at 5% CO2 for differentiation. Cells were harvested the next day after rinsing well with dPBS using 0.5% trypsin. A cell solution was prepared of 1×10^6 cells/ml for 50,000 cells in 50 μl/well in RPMI media with 2% FBS. Cells were plated using a multichannel pipette onto the compound dilutions in Greiner, 384 well, black clear bottom tissue culture treated plates (781090). The plates were incubated in 37° C. incubator at 5% CO2 for 2 hours.
After the 2 hour incubation, the cell plates were spun in the centrifuge for 5 minutes at 1200 rpm. Using the Felix (CyBio), 8 μl of the supernatant was transferred to 384 well, low volume, white proxy plates. (Perkin Elmer, 6008230). A human IL1beta hTRF kit was used to analyze the supernatant (CISBIO, 62HIL1BPEG). The kit instructions were followed for preparing the IL1Beta standard curve and then the antibodies from the kit were diluted 1:40 rather than 1:20 as kit instructed. Once combined, the antibodies were added across the plates, 5 μl/well. The plates were sealed and incubated at 4° C. overnight. The plates were then read on the Perkin Elmer EnVision at 665/615 nm using the hTRF laser.

T1 sequence (Q96P20 whole entry): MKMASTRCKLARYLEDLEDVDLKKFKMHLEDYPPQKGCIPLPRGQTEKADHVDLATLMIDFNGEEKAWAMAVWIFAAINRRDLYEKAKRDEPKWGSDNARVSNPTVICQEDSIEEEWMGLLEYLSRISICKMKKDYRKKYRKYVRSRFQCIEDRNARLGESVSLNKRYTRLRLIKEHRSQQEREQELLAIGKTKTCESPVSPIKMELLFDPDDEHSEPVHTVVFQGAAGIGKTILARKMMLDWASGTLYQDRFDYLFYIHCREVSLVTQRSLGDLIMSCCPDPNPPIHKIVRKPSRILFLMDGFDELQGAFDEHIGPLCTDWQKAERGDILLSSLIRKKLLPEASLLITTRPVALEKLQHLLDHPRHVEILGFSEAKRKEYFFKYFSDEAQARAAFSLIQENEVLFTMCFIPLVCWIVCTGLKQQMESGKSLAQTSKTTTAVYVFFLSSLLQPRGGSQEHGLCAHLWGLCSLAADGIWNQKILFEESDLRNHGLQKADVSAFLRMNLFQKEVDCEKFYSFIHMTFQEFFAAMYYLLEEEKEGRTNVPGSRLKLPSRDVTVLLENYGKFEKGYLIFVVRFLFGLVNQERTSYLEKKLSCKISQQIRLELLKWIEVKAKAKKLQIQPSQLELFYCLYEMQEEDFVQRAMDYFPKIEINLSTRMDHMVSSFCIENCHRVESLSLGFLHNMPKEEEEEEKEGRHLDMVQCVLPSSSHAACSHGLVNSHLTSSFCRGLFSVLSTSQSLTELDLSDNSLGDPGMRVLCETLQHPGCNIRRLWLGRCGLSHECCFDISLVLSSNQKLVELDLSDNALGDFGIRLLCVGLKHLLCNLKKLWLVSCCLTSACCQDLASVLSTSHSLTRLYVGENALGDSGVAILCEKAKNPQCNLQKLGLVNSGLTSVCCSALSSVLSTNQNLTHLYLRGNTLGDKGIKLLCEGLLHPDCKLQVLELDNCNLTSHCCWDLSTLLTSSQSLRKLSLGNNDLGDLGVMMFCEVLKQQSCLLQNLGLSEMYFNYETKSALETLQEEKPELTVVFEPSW

**Q.** For Nc1nc2cc(-c3cc[nH]n3)ccc2c2[nH]c([C@H]3CCCNC3)nc12 [Example 2, (S)-2-(Piperidin-3-yl)-7-(1H-pyrazol-3-yl)-1H-imidazo[4,5-c]quinolin-4-amine], which EC50 is on record?
**A.** 510 nM

**Q.** For CCC(=O)N1CCC[C@H](c2nc3c(N)nc4cc(-c5cc[nH]n5)ccc4c3n2CC)C1 [Example 4, (S)-1-(3-(4-Amino-1-ethyl-7-(1H-pyrazol-3-yl)-1H-imidazo[4,5-c]quinolin-2-yl)piperidin-1-yl)propan-1-one], which EC50 is on record?
**A.** 260 nM

**Q.** CCC(=O)N1CCC[C@H](c2nc3c(N)nc4cc(-c5cc[nH]n5)ccc4c3n2C(C)C)C1 [Example 5, (S)-1-(3-(4-Amino-1-isopropyl-7-(1H-pyrazol-3-yl)-1H-imidazo[4,5-c]quinolin-2-yl)piperidin-1-yl)propan-1-one] was tested. Which EC50 did it give?
**A.** 330 nM

**Q.** Which EC50 does the source give for Nc1nc2cc(-c3cc[nH]n3)ccc2c2[nH]c([C@@H]3CCCNC3)nc12 [Example 7, (R)-2-(Piperidin-3-yl)-7-(1H-pyrazol-3-yl)-1H-imidazo[4,5-c]quinolin-4-amine] here?
**A.** 1730 nM

**Q.** For Nc1nc2cc(-c3cc[nH]n3)ccc2c2[nH]c([C@@H]3CCCN(C(=O)C4CCC4)C3)nc12 [Example 8, (R)-(3-(4-Amino-7-(1H-pyrazol-3-yl)-1H-imidazo[4,5-c]quinolin-2-yl)piperidin-1-yl)(cyclobutyl)methanone], which EC50 is on record?
**A.** 1900 nM

**Q.** With CCC(=O)N1CC[C@H](c2nc3c(N)nc4cc(-c5cc[nH]n5)ccc4c3[nH]2)C1 [Example 9, (S)-1-(3-(4-Amino-7-(1H-pyrazol-3-yl)-1H-imidazo[4,5-c]quinolin-2-yl)pyrrolidin-1-yl)propan-1-one] as the molecule, how does the EC50 read?
**A.** 6600 nM

**Q.** With CC(C)(C)OC(=O)N1CC[C@@H](c2nc3c(N)nc4cc(-c5cc[nH]n5)ccc4c3[nH]2)C1 [Example 10, tert-Butyl (R)-3-(4-amino-7-(1H-pyrazol-3-yl)-1H-imidazo[4,5-c]quinolin-2-yl)pyrrolidine-1-carboxylate] as the molecule, how does the EC50 read?
**A.** 750 nM

**Q.** How did the EC50 turn out when CC(C)C(=O)N1CC[C@@H](c2nc3c(N)nc4cc(-c5cc[nH]n5)ccc4c3[nH]2)C1 [Example 11, (R)-1-(3-(4-Amino-7-(1H-pyrazol-3-yl)-1H-imidazo[4,5-c]quinolin-2-yl)pyrrolidin-1-yl)-2-methylpropan-1-one] was run?
**A.** 7000 nM

**Q.** For CC(C)(C)OC(=O)N1CCC(c2nc3c(N)nc4cc(-c5cc[nH]n5)ccc4c3[nH]2)CC1 [Example 12, tert-Butyl 4-(4-amino-7-(1H-pyrazol-3-yl)-1H-imidazo[4,5-c]quinolin-2-yl)piperidine-1-carboxylate], which EC50 is on record?
**A.** 4900 nM

**Q.** Which EC50 does the source give for CC(C)(C)OC(=O)N1CCC[C@@H]1Cc1nc2c(N)nc3cc(-c4cc[nH]n4)ccc3c2[nH]1 [Example 13, tert-Butyl (R)-2-((4-amino-7-(1H-pyrazol-3-yl)-1H-imidazo[4,5-c]quinolin-2-yl)methyl)pyrolidine-1-carboxylate] here?
**A.** 1520 nM

**Q.** For Nc1nc2cc(-c3cc[nH]n3)ccc2c2[nH]c(C[C@H]3CCCN3)nc12 [Example 14, (R)-7-(1H-pyrazol-3-yl)-2-(pyrrolidin-2-ylmethyl)-1H-imidazo[4,5-c]quinolin-4-amine], which EC50 is on record?
**A.** 110 nM

**Q.** With CCC(=O)N1CCC[C@@H]1Cc1nc2c(N)nc3cc(-c4cc[nH]n4)ccc3c2[nH]1 [Example 15, (R)-1-(2-((4-Amino-7-(1H-pyrazol-3-yl)-1H-imidazo[4,5-c]quinolin-2-yl)methyl)pyrrolidin-1-yl)propane-1-one] as the molecule, how does the EC50 read?
**A.** 1800 nM

**Q.** For CC(C)(C)OC(=O)N1CCC[C@H]1Cc1nc2c(N)nc3cc(-c4cc[nH]n4)ccc3c2[nH]1 [Example 16, tert-Butyl (S)-2-((4-amino-7-(1H-pyrazol-3-yl)-1H-imidazo[4,5-c]quinolin-2-yl)methyl)pyyrolidine-1-carboxylate], which EC50 is on record?
**A.** 3700 nM

**Q.** How did the EC50 turn out when Nc1nc2cc(-c3cc[nH]n3)ccc2c2[nH]c(C[C@@H]3CCCN3)nc12 [Example 17, (S)-7-(1H-pyrazol-3-yl)-2-(pyrrolidin-2-ylmethyl)-1H-imidazo[4,5-c]quinolin-4-amine] was run?
**A.** 1200 nM

**Q.** COC(=O)N1CCC(Cc2nc3c(N)nc4cc(-c5cc[nH]n5)ccc4c3[nH]2)C1 (stereo not drawn) [Example 19, Methyl 3-((4-amino-7-(1H-pyrazol-3-yl)-1H-imidazo[4,5-c]quinolin-2-yl)methyl)pyrrolidine-1-carboxylate] was tested. Which EC50 did it give?
**A.** 1600 nM

**Q.** How did the EC50 turn out when CC(=O)N1CCC(Cc2nc3c(N)nc4cc(-c5cc[nH]n5)ccc4c3[nH]2)C1 (stereo not drawn) [Example 20, 1-(3-((4-Amino-7-(1H-pyrazol-3-yl)-1H-imidazo[4,5-c]quinolin-2-yl)methyl)pyrrolidin-1-yl)ethan-1-one] was run?
**A.** 4900 nM

**Q.** Which EC50 does the source give for CCN1CCC(Cc2nc3c(N)nc4cc(-c5cc[nH]n5)ccc4c3[nH]2)C1 (stereo not drawn) [Example 21, 2-((1-Ethylpyrrolidin-3-yl)methyl)-7-(1H-pyrazol-3-yl)-1H-imidazo[4,5-c]quinolin-4-amine] here?
**A.** 880 nM

**Q.** How did the EC50 turn out when CCN1CCC(Cc2nc3c(N)nc4cc(-n5cccn5)ccc4c3[nH]2)C1 (stereo not drawn) [Example 22, 2-((1-Ethylpyrrolidin-3-yl)methyl)-7-(1H-pyrazol-1-yl)-1H-imidazo[4,5-c]quinolin-4-amine] was run?
**A.** 1400 nM

**Q.** For CC(=O)N1CCC[C@H](c2nc3c(N)nc4cc(-c5cc[nH]n5)ccc4c3[nH]2)C1 [Example 24], which EC50 is on record?
**A.** 770 nM

**Q.** With CCC(=O)N1CCC[C@H](c2nc3c(N)nc4cc(-c5cc[nH]n5)ccc4c3[nH]2)C1 [Example 25] as the molecule, how does the EC50 read?
**A.** 1100 nM

**Q.** Which EC50 does the source give for CC(C)C(=O)N1CCC[C@H](c2nc3c(N)nc4cc(-c5cc[nH]n5)ccc4c3[nH]2)C1 [Example 26] here?
**A.** 1200 nM

**Q.** CCCC(=O)N1CCC[C@H](c2nc3c(N)nc4cc(-c5cc[nH]n5)ccc4c3[nH]2)C1 [Example 27] was tested. Which EC50 did it give?
**A.** 890 nM

**Q.** Which EC50 does the source give for Nc1nc2cc(-c3cc[nH]n3)ccc2c2[nH]c([C@H]3CCCN(C(=O)C4CC4)C3)nc12 [Example 29] here?
**A.** 2400 nM

**Q.** Which EC50 does the source give for Nc1nc2cc(-c3cc[nH]n3)ccc2c2[nH]c([C@H]3CCCN(C(=O)C4CCC4)C3)nc12 [Example 30] here?
**A.** 680 nM

**Q.** How did the EC50 turn out when Nc1nc2cc(-c3cc[nH]n3)ccc2c2[nH]c([C@H]3CCCN(C(=O)c4ccccc4)C3)nc12 [Example 31] was run?
**A.** 1500 nM

**Q.** For Nc1nc2cc(-c3cc[nH]n3)ccc2c2[nH]c([C@H]3CCCN(C(=O)C4CC(F)(F)C4)C3)nc12 [Example 32], which EC50 is on record?
**A.** 2500 nM

**Q.** Which EC50 does the source give for Nc1nc2cc(-c3cc[nH]n3)ccc2c2[nH]c([C@H]3CCCN(C(=O)C4CC4(F)F)C3)nc12 (stereo partly drawn) [Example 33] here?
**A.** 1000 nM

**Q.** COCC(=O)N1CCC[C@H](c2nc3c(N)nc4cc(-c5cc[nH]n5)ccc4c3[nH]2)C1 [Example 34] was tested. Which EC50 did it give?
**A.** 2200 nM

**Q.** For COCCC(=O)N1CCC[C@H](c2nc3c(N)nc4cc(-c5cc[nH]n5)ccc4c3[nH]2)C1 [Example 35], which EC50 is on record?
**A.** 1800 nM

**Q.** With Nc1nc2cc(-c3cc[nH]n3)ccc2c2[nH]c([C@H]3CCCN(C(=O)C4(C(F)(F)F)CC4)C3)nc12 [Example 36] as the molecule, how does the EC50 read?
**A.** 2800 nM

**Q.** N#CC1(C(=O)N2CCC[C@H](c3nc4c(N)nc5cc(-c6cc[nH]n6)ccc5c4[nH]3)C2)CCC1 [Example 37] was tested. Which EC50 did it give?
**A.** 4700 nM

**Q.** How did the EC50 turn out when CCn1c([C@H]2CCCN(C(C)=O)C2)nc2c(N)nc3cc(-c4cc[nH]n4)ccc3c21 [Example 41] was run?
**A.** 770 nM

**Q.** How did the EC50 turn out when CCCC(=O)N1CCC[C@H](c2nc3c(N)nc4cc(-c5cc[nH]n5)ccc4c3n2CC)C1 [Example 42] was run?
**A.** 220 nM

**Q.** How did the EC50 turn out when CCn1c([C@H]2CCCN(C(=O)CC(C)C)C2)nc2c(N)nc3cc(-c4cc[nH]n4)ccc3c21 [Example 43] was run?
**A.** 210 nM

**Q.** For CCn1c([C@H]2CCCN(C(=O)C3CCC3)C2)nc2c(N)nc3cc(-c4cc[nH]n4)ccc3c21 [Example 44], which EC50 is on record?
**A.** 220 nM

**Q.** CCn1c([C@H]2CCCN(C(=O)C3(C#N)CC3)C2)nc2c(N)nc3cc(-c4cc[nH]n4)ccc3c21 [Example 45] was tested. Which EC50 did it give?
**A.** 110 nM
